In brackets after ≈: the same amount, converted by molar mass. Like-named read-outs stand apart in the source and are kept apart here. Residues, ends and D or L forms follow the SMILES beside them.
What was measured:
[1] = system: Caco-2 cells (human intestinal epithelial cells); assay: Membrane strengthening experiment (TER recovery of barrier function after TNF-α); format: cell-based; settings: for Recovery ratio/ctr: comparison value with Ctr (TNFα alone); for function of strengthening the barrier function (membrane-strengthening ability): result in words, FIG. 1A-1H
[2] = system: Bifidobacterium thermophilum AJ110569; assay: Minimum inhibitory concentration, spot-on-lawn method; format: cell-based; settings: indicator strain Bifidobacterium thermophilum AJ110569, GAM, 37° C.; for MIC: read-out: Minimum inhibitory concentration
[3] = system: Salmonella enterica AJ2785; assay: microbe, parasite or virus in culture; format: cell-based; settings: for MIC: Salmonella enterica, AJ2785, read-out: Minimum inhibitory concentration
Escherichia coli MG1665 = assay: Minimum inhibitory concentration, spot-on-lawn method; format: cell-based
[4] = system: Bacteroides fragilis JCM11019; assay: as above; format: cell-based; settings: indicator strain Bacteroides fragilis JCM11019, GAM, 37° C.; for MIC: read-out: Minimum inhibitory concentration
[5] = system: Clostridium perfringens AJ3350; assay: microbe, parasite or virus in culture; format: cell-based; settings: for MIC: Clostridium perfringens, AJ3350, read-out: Minimum inhibitory concentration
[6] = system: Enterococcus faecalis AJ110149; assay: Minimum inhibitory concentration, spot-on-lawn method; format: cell-based; settings: indicator strain Enterococcus faecalis AJ110149, MRS, 30° C., ND = no effect detected
[7] = system: Lactobacillus salivarius AJ110152; assay: as above; format: cell-based; settings: indicator strain Lactobacillus salivarius AJ110152, MRS, 37° C.; for MIC: Ligilactobacillus salivarius, read-out: Minimum inhibitory concentration
[8] = Chicken growth test (body weight gain and feed conversion ratio); format: in vivo, broiler chickens; settings: 0-3 weeks
[9] = system: Lactobacillus acidophilus AJ13778; assay: Minimum inhibitory concentration, spot-on-lawn method; format: cell-based; settings: indicator strain Lactobacillus acidophilus AJ13778, MRS, 37° C.; for MIC: read-out: Minimum inhibitory concentration
[10] = Table 3, addition 10 ppm in feed, negative control = 100
[11] = Table 4, addition 10 ppm in feed
[12] = Table 6, addition 10 ppm, NC = 100%, listed as PC1 (W/Avilamycin)
[13] = Table 6, addition 10 ppm, NC = 100%, listed as PC2 (W/Avilamycin)
[14] = Escherichia coli, MG1665, read-out: Minimum inhibitory concentration

In the case of CC1=C(/C=C/C(C)=C/C=C/C(C)=C/C=C/C=C(C)/C=C/C=C(C)/C=C/C2=C(C)C(=O)[C@@H](O)CC2(C)C)C(C)(C)C[C@H](O)C1=O [Astaxanthin, astaxanthin], the activity at 10 µg/mL ([1]; Homo sapiens, Caco-2, material conc. 10 mg/L, TER barrier function recovery, 24 h, read-out: Recovery ratio (%)) is reported as 132%, the Recovery ratio/ctr ([1]; material conc. 10 mg/L, 24 h) is reported as 1.14 and the “function of strengthening the barrier function (membrane-strengthening ability)” value [1] is reported as “observed to have the function of strengthening the barrier function”.
Compound COC[C@H]1O[C@@H](OC2OC[C@@H]3O[C@]4(O[C@H]3[C@H]2OC(=O)C(C)C)O[C@H](C)[C@@](O)(C(C)=O)[C@@H]2OCO[C@H]24)[C@@H](OC)[C@@H](O)[C@@H]1O[C@@H]1O[C@H](C)[C@H](OC)[C@H](O[C@H]2C[C@@]3(C)OC4(C[C@@H](O)[C@H](O[C@H]5C[C@@H](O)[C@H](OC(=O)c6c(C)c(Cl)c(O)c(Cl)c6OC)[C@@H](C)O5)[C@@H](C)O4)O[C@@H]3[C@@H](C)O2)[C@H]1O (some centres unmarked) [Avilamycin, avilamycin] has a Minimum inhibitory concentration [2] of 16000 µg/mL (≈ 11.4 mM), a Minimum inhibitory concentration [3] greater than 100000 µg/mL and a Minimum inhibitory concentration (Escherichia coli MG1665; indicator strain Escherichia coli MG1665, LB, 37° C.) greater than 100000 µg/mL. The Minimum inhibitory concentration [4] was 8000 µg/mL (≈ 5.7 mM), the Minimum inhibitory concentration ([5]; indicator strain Clostridium perfringens AJ3350, GAM, 37° C.) was 1000 µg/mL (≈ 0.712 mM) and the Minimum inhibitory concentration [6] was 2000 µg/mL (≈ 1.42 mM). For the same compound, the “Recovery ratio (%)” value ([1]; material conc. 10 uM, TER barrier function recovery, 24 h) was 127%, the Recovery ratio/ctr ([1]; material conc. 10 uM, 24 h, 1.1 or more = membrane-strengthening ability) was 1.10 and the “function of strengthening the barrier function (membrane-strengthening ability)” value [1] was “had a function of strengthening the barrier function even at a low concentration”. The Minimum inhibitory concentration [7] was 8000 µg/mL (≈ 5.7 mM), the BWG [8, 10] was 110% and the FCR [8, 10] was 96%. It also gave a BWG [8, 11] of 107%, an FCR [8, 11] of 95% and a BWG [8, 12] of 104%. For the same compound, the FCR [8, 12] was 97%, the BWG [8, 13] was 107% and the FCR [8, 13] was 94%. The Minimum inhibitory concentration [9] was 16000 µg/mL (≈ 11.4 mM).
CC[C@H](C)[C@H](N)C1=N[C@H](C(=O)N[C@@H](CC(C)C)C(=O)N[C@H](CCC(=O)O)C(=O)N[C@H](C(=O)N[C@H]2CCCCNC(=O)[C@H](CC(N)=O)NC(=O)[C@@H](CC(=O)O)NC(=O)[C@H](Cc3cnc[nH]3)NC(=O)[C@@H](Cc3ccccc3)NC(=O)[C@H]([C@@H](C)CC)NC(=O)[C@@H](CCCN)NC2=O)[C@@H](C)CC)CS1 [Bacitracin] (HELM PEPTIDE1{[CC[C@H](C)[C@H](N)C1=N[C@H](C(=O)[*:2])CS1].L.[dE].I.K.[NCCC[C@@H](N[*:1])C(=O)[*:2]].I.[dF].H.[dD].N}$PEPTIDE1,PEPTIDE1,5:R3-11:R2$$$V2.0) gave an MIC [2] of 4000 µg/mL (≈ 2.81 mM), an MIC [3] greater than 100000 µg/mL and an MIC (Escherichia coli MG1665; [14]) greater than 100000 µg/mL. For the same compound, the MIC [4] was greater than 100000 µg/mL, the MIC [7] was 32000 µg/mL (≈ 22.5 mM) and the MIC [9] was 32000 µg/mL (≈ 22.5 mM).
CCCC(=O)O [Butylate, butyric acid] gave an activity at 2000 µM ([1]; Homo sapiens, Caco-2, material conc. 2.0 mM, TER barrier function recovery, 24 h, read-out: Recovery ratio (%)) of 131% and a Recovery ratio/ctr ([1]; material conc. 2.0 mM, 24 h) of 1.13.
For CN(C)[C@@H]1C(O)=C(C(N)=O)C(=O)[C@@]2(O)C(O)=C3C(=O)c4c(O)ccc(Cl)c4[C@@](C)(O)[C@H]3C[C@@H]12 [Chlortetracycline], the MIC [2] was 16000 µg/mL (≈ 33.4 mM), the MIC [3] was 50000 µg/mL (≈ 104 mM) and the MIC (Escherichia coli MG1665; indicator strain Escherichia coli MG1665, LB, 37° C., read-out: Minimum inhibitory concentration) was 50000 µg/mL (≈ 104 mM). The MIC [4] was 4000 µg/mL (≈ 8.35 mM), the MIC [5] was 62 µg/mL (≈ 0.129 mM) and the MIC [7] was 3000 µg/mL (≈ 6.26 mM). The MIC [9] was 4000 µg/mL (≈ 8.35 mM).
With COc1cc(/C=C/C(=O)CC(=O)/C=C/c2ccc(O)c(OC)c2)ccc1O [Curcumin, curcumin] the activity at 200 µM ([1]; Homo sapiens, Caco-2, material conc. 200 uM, TER barrier function recovery, 24 h, read-out: Recovery ratio (%)) was 128% and the Recovery ratio/ctr ([1]; material conc. 200 uM, 24 h) was 1.14.
Work on NC(=O)CC[C@H](N)C(=O)O [Glutamine, glutamine] yielded an activity at 20000 µM ([1]; Homo sapiens, Caco-2, material conc. 20 mM, TER barrier function recovery, 24 h, read-out: Recovery ratio (%)) of 136% and a Recovery ratio/ctr ([1]; material conc. 20 mM, 24 h) of 1.18.
Work on CC[C@@]1([C@@H]2O[C@@H]([C@H]3O[C@@](O)(CO)[C@H](C)C[C@@H]3C)C[C@@H]2C)CC[C@H]([C@]2(C)CC[C@]3(C[C@H](O)[C@@H](C)[C@@H]([C@@H](C)[C@@H](OC)[C@H](C)C(=O)O)O3)O2)O1 [Monensin] yielded an MIC [2] of 2000 µg/mL (≈ 2.98 mM), an MIC [3] greater than 100000 µg/mL and an MIC (Escherichia coli MG1665; [14]) greater than 100000 µg/mL. For the same compound, the MIC [5] was 1000 µg/mL (≈ 1.49 mM), the MIC ([6]; read-out: Minimum inhibitory concentration) was 2000 µg/mL (≈ 2.98 mM) and the activity at 1 µM ([1]; Homo sapiens, Caco-2, material conc. 1 uM, TER barrier function recovery, 24 h, read-out: Recovery ratio (%)) was 126%. The Recovery ratio/ctr ([1]; material conc. 1 uM, 24 h) was 1.13, the MIC [7] was 1000 µg/mL (≈ 1.49 mM) and the MIC [9] was 2000 µg/mL (≈ 2.98 mM).

Source: US11857596B2, “Animal feed additive and animal feed” (priority 2018, dated 2024)
